Reference: the NIST ThermoML archive (doi:10.1016/j.jct.2016.09.005)

Conditions: Liquid, Brillouin Light Scattering

CC(C)OC(C)C [diisopropyl ether]
Conditions	speed of sound [m/s]
302.38 K, 10000 kPa	1087.1
302.39 K, 4000 kPa	1011.9
302.48 K, 5500 kPa	1029.7
302.8 K, 8500 kPa	1052.4
302.91 K, 2500 kPa	1002.7
302.96 K, 1000 kPa	986.08
303.07 K, 7000 kPa	1037.8
307.45 K, 4000 kPa	987.23
307.61 K, 10000 kPa	1066.1
307.86 K, 5500 kPa	1009.4
307.87 K, 8500 kPa	1038.9
308 K, 1000 kPa	965.01
308.01 K, 7000 kPa	1020.5
308.28 K, 2500 kPa	974.68
312.8 K, 10000 kPa	1051
312.81 K, 8500 kPa	1010.4
312.88 K, 7000 kPa	995.2
312.91 K, 2500 kPa	961.97
312.92 K, 5500 kPa	979.14
313.05 K, 1000 kPa	943.07
313.14 K, 4000 kPa	969.4
317.72 K, 10000 kPa	1030.2
318.01 K, 5500 kPa	968.08
318.11 K, 1000 kPa	924.03
318.13 K, 8500 kPa	996.14
318.14 K, 2500 kPa	928.92
318.38 K, 7000 kPa	974.91
318.49 K, 4000 kPa	951.1
322.82 K, 10000 kPa	1007.1
323.15 K, 7000 kPa	960.56
323.3 K, 8500 kPa	972.88
323.31 K, 2500 kPa	912.04
323.5 K, 5500 kPa	943.6
323.62 K, 1000 kPa	901.5
323.71 K, 4000 kPa	924.8
327.56 K, 10000 kPa	994.72
327.75 K, 8500 kPa	964.89
327.97 K, 1000 kPa	881.1
328.08 K, 2500 kPa	887.66
328.1 K, 4000 kPa	901.06
328.13 K, 7000 kPa	936.62
328.17 K, 5500 kPa	923.15
332.93 K, 10000 kPa	963.31
332.94 K, 2500 kPa	869.98
333.01 K, 7000 kPa	920.95
333.08 K, 1000 kPa	855
333.25 K, 8500 kPa	943.92
333.31 K, 4000 kPa	888.08
333.57 K, 5500 kPa	897.12
337.63 K, 5500 kPa	882.64
337.69 K, 1000 kPa	846.25
337.75 K, 2500 kPa	857.76
337.85 K, 10000 kPa	946.87
337.89 K, 8500 kPa	917.48
337.93 K, 4000 kPa	867.64
338.11 K, 7000 kPa	896.43
343.33 K, 1000 kPa	819.28
343.57 K, 8500 kPa	904.65
343.67 K, 4000 kPa	845.53
343.79 K, 7000 kPa	878.38
343.82 K, 2500 kPa	827.84
343.88 K, 10000 kPa	923.89
343.97 K, 5500 kPa	864.56
347.31 K, 10000 kPa	915.04
347.41 K, 2500 kPa	807.03
347.59 K, 1000 kPa	802.59
347.69 K, 4000 kPa	832.86
347.76 K, 8500 kPa	887.44
347.81 K, 5500 kPa	843.4
347.81 K, 7000 kPa	867.06
352.94 K, 4000 kPa	804.7
353.38 K, 8500 kPa	862.02
353.45 K, 1000 kPa	775.82
353.59 K, 2500 kPa	792.6
353.6 K, 5500 kPa	819.82
353.71 K, 7000 kPa	845.61
353.81 K, 10000 kPa	893.76
358.06 K, 10000 kPa	870.54
358.52 K, 8500 kPa	846.91
358.55 K, 5500 kPa	807.15
358.76 K, 1000 kPa	755.17
358.93 K, 2500 kPa	760.2
358.96 K, 4000 kPa	782.98
359.03 K, 7000 kPa	821.85
362.67 K, 1000 kPa	737.96
362.78 K, 5500 kPa	786.13
362.9 K, 10000 kPa	855.96
362.95 K, 8500 kPa	828.91
363.08 K, 7000 kPa	809.07
363.21 K, 2500 kPa	747.41
363.41 K, 4000 kPa	767.15
367.56 K, 7000 kPa	793.16
367.57 K, 5500 kPa	769.09
367.78 K, 4000 kPa	751.56
367.82 K, 8500 kPa	809.14
367.96 K, 10000 kPa	835.29
368.03 K, 1000 kPa	715.17
368.26 K, 2500 kPa	726.3
372.68 K, 10000 kPa	816.27
372.8 K, 7000 kPa	771.64
373.15 K, 5500 kPa	753.88
373.21 K, 8500 kPa	788.43
373.29 K, 2500 kPa	712.12
373.37 K, 4000 kPa	726.56
373.57 K, 1000 kPa	697.04
377.41 K, 1000 kPa	679.66
377.54 K, 7000 kPa	749.64
377.85 K, 4000 kPa	712.4
377.85 K, 5500 kPa	728.98
377.97 K, 8500 kPa	770.84
378.05 K, 2500 kPa	690.57
378.3 K, 10000 kPa	803.55
382.72 K, 1000 kPa	654.9
382.77 K, 7000 kPa	734.01
382.78 K, 10000 kPa	787
382.83 K, 5500 kPa	710.48
382.88 K, 8500 kPa	754.35
383.06 K, 2500 kPa	665.89
383.26 K, 4000 kPa	691.26
387.78 K, 4000 kPa	674.22
388 K, 7000 kPa	713.08
388.09 K, 5500 kPa	694.59
388.3 K, 8500 kPa	735.65
388.31 K, 2500 kPa	653.57
388.68 K, 1000 kPa	634.3
388.86 K, 10000 kPa	760.66
392.26 K, 2500 kPa	635.1
392.28 K, 5500 kPa	675.48
392.33 K, 7000 kPa	701.13
392.5 K, 4000 kPa	658.79
392.65 K, 10000 kPa	747.04
392.79 K, 8500 kPa	722.68
393.19 K, 1000 kPa	615.78
397.81 K, 4000 kPa	632.66
397.95 K, 2500 kPa	613.31
398.22 K, 5500 kPa	653.67
398.25 K, 1000 kPa	589.15
398.32 K, 8500 kPa	702.44
398.37 K, 7000 kPa	674.76
398.9 K, 10000 kPa	728.83
402.67 K, 7000 kPa	662.53
402.77 K, 5500 kPa	638.47
402.88 K, 2500 kPa	590.27
403.23 K, 8500 kPa	683.98
403.4 K, 4000 kPa	612.03
403.45 K, 1000 kPa	570.56
403.45 K, 10000 kPa	709.11
407.64 K, 5500 kPa	623.08
407.75 K, 10000 kPa	693.65
408.1 K, 7000 kPa	642.44
408.23 K, 8500 kPa	667.12
408.31 K, 4000 kPa	592.12
408.37 K, 2500 kPa	571.15
408.65 K, 1000 kPa	544.68
412.43 K, 2500 kPa	550.12
412.43 K, 5500 kPa	606.9
412.66 K, 1000 kPa	530.21
412.7 K, 4000 kPa	576.58
412.83 K, 10000 kPa	681.56
412.95 K, 8500 kPa	646.94
413.28 K, 7000 kPa	622.07
418.22 K, 2500 kPa	532.67
418.42 K, 8500 kPa	627.35
418.54 K, 5500 kPa	583.39
418.59 K, 10000 kPa	659.95
418.87 K, 7000 kPa	603.43
418.91 K, 4000 kPa	554.62
419.01 K, 1000 kPa	502.48
423.21 K, 1000 kPa	482.17
423.5 K, 4000 kPa	536.96
423.62 K, 8500 kPa	613.79
423.75 K, 7000 kPa	590.42
423.79 K, 5500 kPa	567.31
423.9 K, 10000 kPa	640.34
424.09 K, 2500 kPa	502.49
427.41 K, 7000 kPa	578.56
427.66 K, 1000 kPa	460.04
427.92 K, 8500 kPa	597.25
428.03 K, 4000 kPa	520.63
428.26 K, 2500 kPa	490.5
428.45 K, 5500 kPa	546.98
428.53 K, 10000 kPa	625.16
432.35 K, 10000 kPa	618.58
432.63 K, 5500 kPa	529.89
432.77 K, 8500 kPa	581.79
432.83 K, 7000 kPa	558.11

Conditions	speed of sound [m/s]
303.08 K	986.38
318.27 K	915.66
333.62 K	852.5
347.96 K	790.74
362.87 K	731.21
378.14 K	662.26
393.15 K	593.47
402.97 K	552.35
412.75 K	514.15
422.75 K	469.11
432.74 K	426.77
